From patent US8486951B2 (Deciphera Pharmaceuticals, LLC, priority 2008, dated 2013)

Columns and labels:
Type in all cases: biochemical
[1] = molecular target: KDR kinase (Seq ID No. 3) (Homo sapiens, UniProt P35968, DEL940-989/E990V); test: KDR Kinase Assay (assays K1, K2, K3); details: assay variant K1, K2 or K3 not stated; read-out: KDR Enzyme Assay
[2] = molecular target: T1, FMS kinase (Homo sapiens, UniProt P07333); test: FMS Kinase Assay; details: read-out: FMS Enzyme Assay
T1 construct: purchased Invitrogen or Millipore
Method: (§1) In this assay, the oxidation of NADH (thus the decrease at A340 nm) was continuously monitored spectrophometrically. The reaction mixture (100 μl) contained FMS (purchased from Invitrogen or Millipore, 6 nM), polyE4Y (1 mg/ml), MgCl2 (10 mM), pyruvate kinase (4 units), lactate dehydrogenase (0.7 units), phosphoenol pyruvate (1 mM) and NADH (0.28 mM) and ATP (500 μM) in a 90 mM Tris buffer containing 0.2% octyl-glucoside and 1% DMSO, pH 7.5. The inhibition reaction was started by mixing serial diluted test compound with the above reaction mixture. The absorption at 340 nm was monitored continuously for 4 hours at 30° C. on a Polarstar Optima or Synergy 2 plate reader. The reaction rate was calculated using the 2 to 3 h time frame. Percent inhibition was obtained by comparison of reaction rate with that of a control (i.e. with no test compound). IC50 values were calculated from a series of percent inhibition values determined at a range of inhibitor concentrations using software routines as implemented in the GraphPad Prism software package.

[3] = molecular target: T2, c-MET kinase (Seq. ID no. 2) (Homo sapiens, UniProt P08581); test: c-MET Kinase Assay (ADP production, pyruvate kinase/lactate dehydrogenase coupled); details: read-out: cMET Enzyme Assay
T2 construct: purchased Invitrogen PV3143
Method: In this assay, the oxidation of NADH (thus the decrease at A340 nm) was continuously monitored spectrophometrically. […] Test compounds were incubated with C-Met (Seq. ID no. 2) and other reaction reagents at 22° C. for 0.5 h before ATP (100 μM) was added to start the reaction. The absorption at 340 nm was monitored continuously for 2 hours at 30° C. on Polarstar Optima plate reader (BMG). The reaction rate was calculated using the 1.0 to 2.0 h time frame. Percent inhibition was obtained by comparison of reaction rate with that of a control (i.e. with no test compound). IC50 values were calculated from a series of percent inhibition values determined at a range of inhibitor concentrations using software routines as implemented in the GraphPad Prism software package.

[4] = molecular target: T3, c-KIT kinase (Seq. ID no. 1) (Homo sapiens, UniProt P10721); test: c-KIT kinase Assay (ADP production, pyruvate kinase/lactate dehydrogenase coupled); details: read-out: cKIT Enzyme Assay
T3 construct: purchased ProQinase
Method: In this assay, the oxidation of NADH (thus the decrease at A340 nm) was continuously monitored spectrophometrically. […] The absorption at 340 nm was monitored continuously for 0.5 hours at 30° C. on Polarstar Optima plate reader (BMG). The reaction rate was calculated using the 0 to 0.5 h time frame. Percent inhibition was obtained by comparison of reaction rate with that of a control (i.e. with no test compound). IC50 values were calculated from a series of percent inhibition values determined at a range of inhibitor concentrations using software routines as implemented in the GraphPad Prism software package.

[5] = molecular target: T4, PDGFRα kinase (Homo sapiens, UniProt P16234); test: PDGFRα Kinase Assay; details: read-out: PDGFRa Enzyme Assay
T4 construct: purchased Invitrogen
Method: as §1, with “Activity of PDGFRα kinase was determined by following the production of ADP from the kinase reaction through coupling with the pyruvate kinase/lactate dehydrogenase system. In” for “In”, “PDGFRα (Invitrogen, 10” for “FMS (purchased from Invitrogen or Millipore, 6”

[6] = molecular target: T5, PDGFRβ (Homo sapiens, UniProt P09619); test: PDGFRβ Kinase Assay; details: read-out: PDGFRb Enzyme Assay
T5 construct: purchased Invitrogen
T5 sequence (P09619 33-1106): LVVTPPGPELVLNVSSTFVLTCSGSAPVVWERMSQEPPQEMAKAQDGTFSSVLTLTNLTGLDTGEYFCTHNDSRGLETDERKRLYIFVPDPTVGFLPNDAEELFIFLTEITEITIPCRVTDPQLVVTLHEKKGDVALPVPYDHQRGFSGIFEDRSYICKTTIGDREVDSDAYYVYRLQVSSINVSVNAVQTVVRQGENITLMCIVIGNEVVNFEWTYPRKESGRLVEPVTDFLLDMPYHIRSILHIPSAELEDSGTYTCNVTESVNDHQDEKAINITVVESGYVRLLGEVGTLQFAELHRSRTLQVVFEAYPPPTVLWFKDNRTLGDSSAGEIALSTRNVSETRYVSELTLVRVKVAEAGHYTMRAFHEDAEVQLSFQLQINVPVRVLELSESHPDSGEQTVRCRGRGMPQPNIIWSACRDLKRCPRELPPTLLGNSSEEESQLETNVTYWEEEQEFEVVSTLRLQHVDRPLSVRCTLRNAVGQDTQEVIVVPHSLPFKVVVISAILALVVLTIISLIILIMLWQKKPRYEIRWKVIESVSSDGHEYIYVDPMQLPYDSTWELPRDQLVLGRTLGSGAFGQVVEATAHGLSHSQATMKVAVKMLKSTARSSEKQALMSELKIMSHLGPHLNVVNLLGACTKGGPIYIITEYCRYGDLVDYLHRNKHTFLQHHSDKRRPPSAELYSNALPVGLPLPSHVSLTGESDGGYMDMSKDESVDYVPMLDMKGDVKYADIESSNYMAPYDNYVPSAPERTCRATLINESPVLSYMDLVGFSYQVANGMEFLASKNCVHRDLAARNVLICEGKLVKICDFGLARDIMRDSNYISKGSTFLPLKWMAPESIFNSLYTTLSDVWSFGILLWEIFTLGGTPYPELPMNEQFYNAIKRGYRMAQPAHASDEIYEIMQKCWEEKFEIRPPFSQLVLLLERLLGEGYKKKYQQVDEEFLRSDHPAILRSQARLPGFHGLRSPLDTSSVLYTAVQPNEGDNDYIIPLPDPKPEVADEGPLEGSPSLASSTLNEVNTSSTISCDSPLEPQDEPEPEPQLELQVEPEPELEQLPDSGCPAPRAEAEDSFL

T2 sequence (P08581 with tags, fused parts or gaps): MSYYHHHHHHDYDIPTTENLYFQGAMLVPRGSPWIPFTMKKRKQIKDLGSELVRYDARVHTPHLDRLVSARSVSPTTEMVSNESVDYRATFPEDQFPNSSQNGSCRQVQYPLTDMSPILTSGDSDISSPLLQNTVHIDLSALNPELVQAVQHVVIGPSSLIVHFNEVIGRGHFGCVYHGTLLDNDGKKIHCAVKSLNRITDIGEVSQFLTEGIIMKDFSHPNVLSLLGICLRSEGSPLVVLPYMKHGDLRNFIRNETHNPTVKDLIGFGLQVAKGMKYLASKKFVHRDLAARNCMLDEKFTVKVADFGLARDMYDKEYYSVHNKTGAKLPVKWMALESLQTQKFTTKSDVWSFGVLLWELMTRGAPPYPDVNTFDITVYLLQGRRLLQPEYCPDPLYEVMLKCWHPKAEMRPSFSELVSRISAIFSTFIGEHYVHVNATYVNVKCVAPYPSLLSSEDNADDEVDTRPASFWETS
T4 sequence (P16234 24-1089): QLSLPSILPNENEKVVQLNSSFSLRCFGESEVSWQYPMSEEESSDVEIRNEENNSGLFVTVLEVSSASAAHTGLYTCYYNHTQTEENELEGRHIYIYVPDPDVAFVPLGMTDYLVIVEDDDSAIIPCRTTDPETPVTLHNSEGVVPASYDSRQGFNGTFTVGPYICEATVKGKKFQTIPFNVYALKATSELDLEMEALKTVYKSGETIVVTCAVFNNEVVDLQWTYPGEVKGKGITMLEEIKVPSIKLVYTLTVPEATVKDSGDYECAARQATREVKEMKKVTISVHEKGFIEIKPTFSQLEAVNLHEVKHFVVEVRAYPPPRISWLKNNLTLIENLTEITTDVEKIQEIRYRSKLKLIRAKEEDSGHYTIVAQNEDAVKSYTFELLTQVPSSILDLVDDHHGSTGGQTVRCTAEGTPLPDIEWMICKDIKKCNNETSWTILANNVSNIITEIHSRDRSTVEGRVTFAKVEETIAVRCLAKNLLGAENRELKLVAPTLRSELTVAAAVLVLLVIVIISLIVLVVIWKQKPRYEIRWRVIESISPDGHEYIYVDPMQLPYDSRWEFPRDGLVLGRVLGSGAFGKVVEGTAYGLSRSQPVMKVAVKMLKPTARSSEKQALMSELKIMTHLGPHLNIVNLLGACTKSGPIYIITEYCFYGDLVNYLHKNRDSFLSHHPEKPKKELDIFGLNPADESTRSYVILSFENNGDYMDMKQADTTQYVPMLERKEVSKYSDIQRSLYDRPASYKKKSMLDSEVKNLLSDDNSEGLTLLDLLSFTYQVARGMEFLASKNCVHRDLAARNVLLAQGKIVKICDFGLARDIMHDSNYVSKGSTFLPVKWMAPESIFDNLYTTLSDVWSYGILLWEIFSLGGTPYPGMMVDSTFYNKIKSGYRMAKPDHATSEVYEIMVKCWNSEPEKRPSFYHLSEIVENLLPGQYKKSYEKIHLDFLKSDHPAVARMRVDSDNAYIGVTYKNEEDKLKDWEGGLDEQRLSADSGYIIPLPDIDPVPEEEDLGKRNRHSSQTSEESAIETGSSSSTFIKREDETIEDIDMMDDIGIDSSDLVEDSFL
Chain of KDR kinase (Seq ID No. 3) (P35968 with tags, fused parts or gaps DEL940-989/E990V): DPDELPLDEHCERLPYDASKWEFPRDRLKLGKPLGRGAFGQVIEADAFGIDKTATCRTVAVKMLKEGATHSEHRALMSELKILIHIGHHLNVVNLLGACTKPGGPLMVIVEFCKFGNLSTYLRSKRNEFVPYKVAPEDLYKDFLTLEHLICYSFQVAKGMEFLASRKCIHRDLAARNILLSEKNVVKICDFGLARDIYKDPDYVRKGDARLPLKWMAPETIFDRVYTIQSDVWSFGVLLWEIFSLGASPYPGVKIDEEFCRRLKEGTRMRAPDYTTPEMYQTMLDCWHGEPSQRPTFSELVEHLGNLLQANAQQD
T1 sequence (P07333 20-972): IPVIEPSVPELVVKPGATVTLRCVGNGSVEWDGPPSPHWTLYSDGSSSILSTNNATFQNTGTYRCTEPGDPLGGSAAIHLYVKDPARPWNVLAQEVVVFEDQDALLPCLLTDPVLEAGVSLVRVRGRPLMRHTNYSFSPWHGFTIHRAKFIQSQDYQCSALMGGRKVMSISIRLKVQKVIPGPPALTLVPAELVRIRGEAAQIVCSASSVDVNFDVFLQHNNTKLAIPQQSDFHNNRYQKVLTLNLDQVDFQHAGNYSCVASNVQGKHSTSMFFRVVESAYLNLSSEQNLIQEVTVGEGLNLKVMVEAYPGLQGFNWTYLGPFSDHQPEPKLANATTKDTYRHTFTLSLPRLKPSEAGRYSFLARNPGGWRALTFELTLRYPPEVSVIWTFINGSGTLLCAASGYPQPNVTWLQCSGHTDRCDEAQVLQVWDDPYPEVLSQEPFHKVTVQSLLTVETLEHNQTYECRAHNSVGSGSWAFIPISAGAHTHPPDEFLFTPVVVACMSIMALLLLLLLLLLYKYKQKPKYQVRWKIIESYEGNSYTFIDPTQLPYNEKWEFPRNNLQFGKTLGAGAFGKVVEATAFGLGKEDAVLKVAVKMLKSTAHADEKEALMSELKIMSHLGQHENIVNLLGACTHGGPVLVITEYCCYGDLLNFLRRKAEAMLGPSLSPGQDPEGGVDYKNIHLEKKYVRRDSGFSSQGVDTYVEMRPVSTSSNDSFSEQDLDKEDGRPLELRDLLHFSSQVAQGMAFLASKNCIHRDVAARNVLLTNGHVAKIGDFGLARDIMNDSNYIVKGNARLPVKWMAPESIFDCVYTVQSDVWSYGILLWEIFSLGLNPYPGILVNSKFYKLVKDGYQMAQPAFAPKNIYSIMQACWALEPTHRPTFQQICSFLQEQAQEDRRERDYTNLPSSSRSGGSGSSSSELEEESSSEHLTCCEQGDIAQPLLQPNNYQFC
T3 sequence (P10721 with tags, fused parts or gaps): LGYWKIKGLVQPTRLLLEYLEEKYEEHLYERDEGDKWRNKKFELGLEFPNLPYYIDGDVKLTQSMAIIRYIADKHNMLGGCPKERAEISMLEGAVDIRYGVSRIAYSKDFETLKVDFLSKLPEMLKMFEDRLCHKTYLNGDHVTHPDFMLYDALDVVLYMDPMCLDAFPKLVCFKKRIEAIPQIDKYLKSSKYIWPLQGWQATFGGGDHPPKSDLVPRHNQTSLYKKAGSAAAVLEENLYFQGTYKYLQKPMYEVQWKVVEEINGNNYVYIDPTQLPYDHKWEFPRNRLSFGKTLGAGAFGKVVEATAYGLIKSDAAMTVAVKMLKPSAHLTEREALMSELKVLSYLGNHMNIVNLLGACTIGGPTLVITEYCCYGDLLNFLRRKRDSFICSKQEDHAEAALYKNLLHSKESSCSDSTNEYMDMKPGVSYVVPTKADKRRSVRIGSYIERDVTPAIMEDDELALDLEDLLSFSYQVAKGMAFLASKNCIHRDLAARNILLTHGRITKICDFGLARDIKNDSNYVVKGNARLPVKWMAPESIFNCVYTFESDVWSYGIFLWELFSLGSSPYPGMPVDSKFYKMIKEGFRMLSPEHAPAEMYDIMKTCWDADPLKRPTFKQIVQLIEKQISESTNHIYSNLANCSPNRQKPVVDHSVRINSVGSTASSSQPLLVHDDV

IC50 [1]	IC50 [3]	Compound	other results
< 10000 nM	< 10000 nM	Cc1cc(F)c(NC(=O)C2(C(=O)Nc3ccc(F)cc3)CC2)cc1Oc1nccc(-c2cn[nH]c2)n1 [Example 54, N-(5-(4-(1H-pyrazol-4-yl)pyrimidin-2-yloxy)-2-fluoro-4-methylphenyl)-N′-(4-fluorophenyl)cyclopropane-1,1-dicarboxamide]	IC50 [2]: < 10000 nM
–	< 2000 nM	O=C(Nc1ccc(F)cc1)C1(C(=O)Nc2ccc(Oc3ccnc(-c4c[nH]nn4)c3)cc2F)CC1 [Example 60, N-(4-(2-(1H-1,2,3-triazol-4-yl)pyridin-4-yloxy)-2-fluorophenyl)-N′-(4-fluorophenyl)cyclopropane-1,1-dicarboxamide]	–
–	< 2000 nM	C[C@H](NC(=O)C1(C(=O)Nc2ccc(Oc3ccnc(-c4cnn(C)c4)c3)c(F)c2)CC1)c1ccc(F)cc1 [Example 33, N-(3-fluoro-4-(2-(1-methyl-1H-pyrazol-4-yl)pyridin-4-yloxy)phenyl)-N′-((S)-1-(4-fluorophenyl)ethyl)cyclopropane-1,1-dicarboxamide]	–
–	< 2000 nM	Cn1cc(-c2cc(Oc3ccc(NC(=O)C4(C(=O)Nc5ccc(F)cc5F)CC4)c(F)c3)ccn2)cn1 [Example 27, N-(2,4-difluorophenyl)-N′-(2-fluoro-4-(2-(1-methyl-1H-pyrazol-4-yl)pyridin-4-yloxy)phenyl)cyclopropane-1,1-dicarboxamide]	–
< 10000 nM	< 10000 nM	Cn1cc(-c2ccnc(Oc3ccc(F)c(NC(=O)C4(C(=O)Nc5ccc(F)cc5)CC4)c3)n2)cn1 [Example 53, N-(2-fluoro-5-(4-(1-methyl-1H-pyrazol-4-yl)pyrimidin-2-yloxy)phenyl)-N′-(4-fluorophenyl)cyclopropane-1,1-dicarboxamide]	IC50 [2]: < 10000 nM
< 10000 nM	< 10000 nM	Cc1cc(F)c(NC(=O)C2(C(=O)Nc3ccc(F)cc3)CC2)cc1Oc1nccc(-c2cnn(C)c2)n1 [Example 52, N-(2-fluoro-4-methyl-5-(4-(1-methyl-1H-pyrazol-4-yl)pyrimidin-2-yloxy)phenyl)-N′-(4-fluorophenyl)cyclopropane-1,1-dicarboxamide]	IC50 [2]: < 10000 nM
–	< 2000 nM	COC[C@H](NC(=O)C1(C(=O)Nc2ccc(Oc3ccnc(-c4cnn(C)c4)c3)c(F)c2)CC1)c1ccc(F)cc1 [Example 36, N-(3-fluoro-4-(2-(1-methyl-1H-pyrazol-4-yl)pyridin-4-yloxy)phenyl)-N′((R)-1-(4-fluorophenyl)-2-methoxyethyl)cyclopropane-1,1-dicarboxamide]	–
–	< 2000 nM	CC[C@H](NC(=O)C1(C(=O)Nc2ccc(Oc3ccnc(-c4cnn(C)c4)c3)c(F)c2)CC1)c1ccc(F)cc1 [Example 34, N-(3-fluoro-4-(2-(1-methyl-1H-pyrazol-4-yl)pyridin-4-yloxy)phenyl)-N′-((S)-1-(4-fluorophenyl)propyl)cyclopropane-1,1-dicarboxamide]	–
< 10000 nM	< 2000 nM	Cc1c(Oc2ccnc(-c3cnn(C)c3)c2)ccc(NC(=O)C2(C(=O)Nc3ccc(F)cc3)CC2)c1F [Example 32, N-(2-fluoro-3-methyl-4-(2-(1-methyl-1H-pyrazol-4-yl)pyridin-4-yloxy)phenyl)-N-(4-fluorophenyl)cyclopropane-1,1-dicarboxamide]	IC50 [2]: < 2000 nM
–	< 2000 nM	Cn1cc(-c2cc(Oc3ccc(NC(=O)C4(C(=O)Nc5cccs5)CC4)c(F)c3)ccn2)cn1 [Example 35, N-(2-fluoro-4-(2-(1-methyl-1H-pyrazol-4-yl)pyridin-4-yloxy)phenyl)-N′-(thiophen-2-yl)cyclopropane-1,1-dicarboxamide]	–
–	< 2000 nM	Cn1cc(-c2cc(Oc3ccc(NC(=O)C4(C(=O)Nc5ccc(C(F)(F)F)cc5)CC4)c(F)c3)ccn2)cn1 [Example 25, N-(2-fluoro-4-(2-(1-methyl-1H-pyrazol-4-yl)pyridin-4-yloxy)phenyl)-N′-(4-(trifluoromethyl)phenyl)cyclopropane-1,1-dicarboxamide]	–
–	< 2000 nM	Cn1cc(-c2cc(Oc3ccc(NC(=O)C4(C(=O)Nc5ccc(F)cc5Cl)CC4)c(F)c3)ccn2)cn1 [Example 29, N-(2-chloro-4-fluorophenyl)-N′-(2-fluoro-4-(2-(1-methyl-1H-pyrazol-4-yl)pyridin-4-yloxy)phenyl)cyclopropane-1,1-dicarboxamide]	–
–	–	O=C(Cc1ccc(F)cc1)NC(=O)Nc1ccc(Oc2ccnc(-c3nc(C(F)(F)F)c[nH]3)c2)cc1 [Example 39, 1-(2-(4-fluorophenyl)acetyl)-3-(4-(2-(4-(trifluoromethyl)-1,1-imidazol-2-yl)pyridin-4-yloxy)phenyl)urea]	IC50 [6]: < 2000 nM; IC50 [5]: < 200 nM
< 2000 nM	< 200 nM	Cn1cc(-c2cc(Oc3ccc(NC(=O)C4(C(=O)Nc5ccc(F)cc5)CC4)c(F)c3F)ccn2)cn1 [Example 1, N-(2,3-difluoro-4-(2-(1-methyl-1H-pyrazol-4-yl)pyridin-4-yloxy)phenyl)-N′-(4-fluorophenyl)cyclopropane-1,1-dicarboxamide]	IC50 [4]: < 2000 nM; IC50 [6]: < 2000 nM; IC50 [5]: < 200 nM
–	< 10000 nM	Cn1cc(-c2cc(Oc3ccc(NC(=O)C4(C(=O)Nc5ccc(C#N)cc5)CC4)c(F)c3)ccn2)cn1 [Example 28, N-(4-cyanophenyl)-N′-(2-fluoro-4-(2-(1-methyl-1H-pyrazol-4-yl)pyridin-4-yloxy)phenyl)cyclopropane-1,1-dicarboxamide]	–
–	< 2000 nM	Cn1cc(-c2cc(Oc3ccc(NC(=O)C4(C(=O)Nc5ccc(F)c(F)c5)CC4)c(F)c3)ccn2)cn1 [Example 24, N-(3,4-difluorophenyl)-N′-(2-fluoro-4-(2-(1-methyl-1H-pyrazol-4-yl)pyridin-4-yloxy)phenyl)cyclopropane-1,1-dicarboxamide]	–
< 10000 nM	< 2000 nM	Cn1cc(-c2cc(Oc3ccc(NC(=O)C4(C(=O)Nc5ccc(F)cc5)CC4)cn3)ccn2)cn1 [Example 38, N-(4-fluorophenyl)-N′-(6-(2-(1-methyl-1H-pyrazol-4-yl)pyridin-4-yloxy)pyridin-3-yl)cyclopropane-1,1-dicarboxamide]	IC50 [2]: < 10000 nM
–	< 10000 nM	Cn1cc(-c2cc(Oc3ccc(NC(=O)C4(C(=O)Nc5ccc(F)c(C#N)c5)CC4)c(F)c3)ccn2)cn1 [Example 26, N-(3-cyano-4-fluorophenyl)-N′-(2-fluoro-4-(2-(1-methyl-1H-pyrazol-4-yl)pyridin-4-yloxy)phenyl)cyclopropane-1,1-dicarboxamide]	–
< 2000 nM	–	Cn1cc(-c2cc(Oc3ccc(NC(=O)C4(C(=O)NCc5ccccc5)CC4)c(F)c3F)ccn2)cn1 [Example 3, N-benzyl-N′-(2,3-difluoro-4-(2-(1-methyl-1H-pyrazol-4-yl)pyridin-4-yloxy)phenyl)cyclopropane-1,1-dicarboxamide]	IC50 [6]: < 10000 nM; IC50 [5]: < 2000 nM

Compound	IC50 [1]	IC50 [3]	other results
CN(C(=O)C1(C(=O)Nc2ccc(F)cc2)CC1)c1ccc(Oc2ccnc(-c3cnn(C)c3)c2)c(F)c1 [Example 58, N-(3-fluoro-4-(2-(1-methyl-1H-pyrazol-4-yl)pyridin-4-yloxy)phenyl)-N′-(4-fluorophenyl)-N-methylcyclopropane-1,1-dicarboxamide]	< 10000 nM	< 10000 nM	IC50 [4]: < 10000 nM; IC50 [5]: < 10000 nM
